Activity calls are given as the source filed them. Unless noted, no cut-off for these calls is given here.
Test system: not listed separately
Assay: Antioxidant activity assessed as metal chelating activity by measuring inhibition of ferrozine-Fe2+ complex formation at 25 to 100 ug/ml
Type: functional
Conditions: not given
In the case of `Nc1n[nH]c2c1C(c1c(-c3ccccc3)[nH]c3ccc(Cl)cc13)C=C(c1ccc(Cl)cc1)O2` (stereo unspecified), the Activity is reported as “Active”.

Test system: not listed separately
Assay: Antioxidant activity assessed as ferric ion reducing activity at 100 ug/ml by FRAP assay
Type: functional
Conditions: not given
For `Nc1n[nH]c2c1C(c1c(-c3ccccc3)[nH]c3ccc(Cl)cc13)C=C(c1ccc(Cl)cc1)O2` (stereo unspecified), the Activity was “Active”.

Test system: Aspergillus flavus
Assay: Antimicrobial activity against Aspergillus flavus MTCC 1973 at 500 ug/ml after 72 hrs by cup plate method
Type: functional
Conditions: MTCC 1973, 72 h, read-out: IZ
`Nc1n[nH]c2c1C(c1c(-c3ccccc3)[nH]c3ccc(Cl)cc13)C=C(c1ccc(Cl)cc1)O2` (stereo unspecified) showed a zone of inhibition at 500 µg/mL of 9 mm.

Test system: Aspergillus flavus
Assay: Antimicrobial activity against Aspergillus flavus MTCC 1973 at 750 ug/ml after 72 hrs by cup plate method
Type: functional
Conditions: MTCC 1973, 72 h, read-out: IZ
For `Nc1n[nH]c2c1C(c1c(-c3ccccc3)[nH]c3ccc(Cl)cc13)C=C(c1ccc(Cl)cc1)O2` (stereo unspecified), the zone of inhibition at 750 µg/mL was 9 mm.

Test system: Aspergillus flavus
Assay: Antimicrobial activity against Aspergillus flavus MTCC 1973 at 1000 ug/ml after 72 hrs by cup plate method
Type: functional
Conditions: MTCC 1973, 72 h, read-out: IZ
In the case of `Nc1n[nH]c2c1C(c1c(-c3ccccc3)[nH]c3ccc(Cl)cc13)C=C(c1ccc(Cl)cc1)O2` (stereo unspecified), the zone of inhibition at 1000 µg/mL is reported as 5 mm.

Test system: Aspergillus terreus
Assay: Antimicrobial activity against Aspergillus terreus MTCC 1782 at 500 ug/ml after 72 hrs by cup plate method
Type: functional
Conditions: MTCC 1782, 72 h, read-out: IZ
`Nc1n[nH]c2c1C(c1c(-c3ccccc3)[nH]c3ccc(Cl)cc13)C=C(c1ccc(Cl)cc1)O2` (stereo unspecified) gave a zone of inhibition at 500 µg/mL of 9 mm.

Test system: Aspergillus terreus
Assay: Antimicrobial activity against Aspergillus terreus MTCC 1782 at 750 ug/ml after 72 hrs by cup plate method
Type: functional
Conditions: MTCC 1782, 72 h, read-out: IZ
For `Nc1n[nH]c2c1C(c1c(-c3ccccc3)[nH]c3ccc(Cl)cc13)C=C(c1ccc(Cl)cc1)O2` (stereo unspecified), the zone of inhibition at 750 µg/mL was 9 mm.

Test system: Aspergillus terreus
Assay: Antimicrobial activity against Aspergillus terreus MTCC 1782 at 1000 ug/ml after 72 hrs by cup plate method
Type: functional
Conditions: MTCC 1782, 72 h, read-out: IZ
`Nc1n[nH]c2c1C(c1c(-c3ccccc3)[nH]c3ccc(Cl)cc13)C=C(c1ccc(Cl)cc1)O2` (stereo unspecified) showed a zone of inhibition at 1000 µg/mL of 8 mm.

Test system: Aspergillus oryzae
Assay: Antimicrobial activity against Aspergillus oryzae MTCC 3567 at 500 ug/ml after 72 hrs by cup plate method
Type: functional
Conditions: MTCC 3567, 72 h, read-out: IZ
In the case of `Nc1n[nH]c2c1C(c1c(-c3ccccc3)[nH]c3ccc(Cl)cc13)C=C(c1ccc(Cl)cc1)O2` (stereo unspecified), the zone of inhibition at 500 µg/mL is reported as 10 mm.

Test system: Aspergillus oryzae
Assay: Antimicrobial activity against Aspergillus oryzae MTCC 3567 at 750 ug/ml after 72 hrs by cup plate method
Type: functional
Conditions: MTCC 3567, 72 h, read-out: IZ
In the case of `Nc1n[nH]c2c1C(c1c(-c3ccccc3)[nH]c3ccc(Cl)cc13)C=C(c1ccc(Cl)cc1)O2` (stereo unspecified), the zone of inhibition at 750 µg/mL is reported as 10 mm.

Test system: Aspergillus oryzae
Assay: Antimicrobial activity against Aspergillus oryzae MTCC 3567 at 1000 ug/ml after 72 hrs by cup plate method
Type: functional
Conditions: MTCC 3567, 72 h, read-out: IZ
`Nc1n[nH]c2c1C(c1c(-c3ccccc3)[nH]c3ccc(Cl)cc13)C=C(c1ccc(Cl)cc1)O2` (stereo unspecified) showed a zone of inhibition at 1000 µg/mL of 10 mm.

Test system: Aspergillus niger
Assay: Antimicrobial activity against Aspergillus niger MTCC 281 at 500 ug/ml after 72 hrs by cup plate method
Type: functional
Conditions: MTCC 281, 72 h, read-out: IZ
With `Nc1n[nH]c2c1C(c1c(-c3ccccc3)[nH]c3ccc(Cl)cc13)C=C(c1ccc(Cl)cc1)O2` (stereo unspecified) the zone of inhibition at 500 µg/mL was 10 mm.

Test system: Aspergillus niger
Assay: Antimicrobial activity against Aspergillus niger MTCC 281 at 750 ug/ml after 72 hrs by cup plate method
Type: functional
Conditions: MTCC 281, 72 h, read-out: IZ
`Nc1n[nH]c2c1C(c1c(-c3ccccc3)[nH]c3ccc(Cl)cc13)C=C(c1ccc(Cl)cc1)O2` (stereo unspecified) showed a zone of inhibition at 750 µg/mL of 10 mm.

Test system: Aspergillus niger
Assay: Antimicrobial activity against Aspergillus niger MTCC 281 at 1000 ug/ml after 72 hrs by cup plate method
Type: functional
Conditions: MTCC 281, 72 h, read-out: IZ
Work on `Nc1n[nH]c2c1C(c1c(-c3ccccc3)[nH]c3ccc(Cl)cc13)C=C(c1ccc(Cl)cc1)O2` (stereo unspecified) yielded a zone of inhibition at 1000 µg/mL of 11 mm.

Test system: Pseudomonas aeruginosa
Assay: Antimicrobial activity against Pseudomonas aeruginosa MTCC 1688 at 500 ug/ml after 24 hrs by cup plate method
Type: functional
Conditions: MTCC 1688, 24 h, read-out: IZ
Work on `Nc1n[nH]c2c1C(c1c(-c3ccccc3)[nH]c3ccc(Cl)cc13)C=C(c1ccc(Cl)cc1)O2` (stereo unspecified) yielded a zone of inhibition at 500 µg/mL of 10 mm.

Test system: Pseudomonas aeruginosa
Assay: Antimicrobial activity against Pseudomonas aeruginosa MTCC 1688 at 750 ug/ml after 24 hrs by cup plate method
Type: functional
Conditions: MTCC 1688, 24 h, read-out: IZ
`Nc1n[nH]c2c1C(c1c(-c3ccccc3)[nH]c3ccc(Cl)cc13)C=C(c1ccc(Cl)cc1)O2` (stereo unspecified) gave a zone of inhibition at 750 µg/mL of 9 mm.

Test system: Pseudomonas aeruginosa
Assay: Antimicrobial activity against Pseudomonas aeruginosa MTCC 1688 at 1000 ug/ml after 24 hrs by cup plate method
Type: functional
Conditions: MTCC 1688, 24 h, read-out: IZ
For `Nc1n[nH]c2c1C(c1c(-c3ccccc3)[nH]c3ccc(Cl)cc13)C=C(c1ccc(Cl)cc1)O2` (stereo unspecified), the zone of inhibition at 1000 µg/mL was 9 mm.

Test system: Klebsiella pneumoniae
Assay: Antimicrobial activity against Klebsiella pneumoniae NCTC 13368 at 500 ug/ml after 24 hrs by cup plate method
Type: functional
Conditions: NCTC 13368, 24 h, read-out: IZ
`Nc1n[nH]c2c1C(c1c(-c3ccccc3)[nH]c3ccc(Cl)cc13)C=C(c1ccc(Cl)cc1)O2` (stereo unspecified) gave a zone of inhibition at 500 µg/mL of 13 mm.

Test system: Klebsiella pneumoniae
Assay: Antimicrobial activity against Klebsiella pneumoniae NCTC 13368 at 750 ug/ml after 24 hrs by cup plate method
Type: functional
Conditions: NCTC 13368, 24 h, read-out: IZ
In the case of `Nc1n[nH]c2c1C(c1c(-c3ccccc3)[nH]c3ccc(Cl)cc13)C=C(c1ccc(Cl)cc1)O2` (stereo unspecified), the zone of inhibition at 750 µg/mL is reported as 13 mm.

Test system: Klebsiella pneumoniae
Assay: Antimicrobial activity against Klebsiella pneumoniae NCTC 13368 at 1000 ug/ml after 24 hrs by cup plate method
Type: functional
Conditions: NCTC 13368, 24 h, read-out: IZ
`Nc1n[nH]c2c1C(c1c(-c3ccccc3)[nH]c3ccc(Cl)cc13)C=C(c1ccc(Cl)cc1)O2` (stereo unspecified) showed a zone of inhibition at 1000 µg/mL of 13 mm.

Test system: Staphylococcus aureus
Assay: Antimicrobial activity against Staphylococcus aureus ATCC 29513 at 500 ug/ml after 24 hrs by cup plate method
Type: functional
Conditions: ATCC 29513, 24 h, read-out: IZ
Molecule `Nc1n[nH]c2c1C(c1c(-c3ccccc3)[nH]c3ccc(Cl)cc13)C=C(c1ccc(Cl)cc1)O2` (stereo unspecified) has a zone of inhibition at 500 µg/mL of 14 mm.

Test system: Staphylococcus aureus
Assay: Antimicrobial activity against Staphylococcus aureus ATCC 29513 at 750 ug/ml after 24 hrs by cup plate method
Type: functional
Conditions: ATCC 29513, 24 h, read-out: IZ
`Nc1n[nH]c2c1C(c1c(-c3ccccc3)[nH]c3ccc(Cl)cc13)C=C(c1ccc(Cl)cc1)O2` (stereo unspecified) showed a zone of inhibition at 750 µg/mL of 14 mm.

Test system: Staphylococcus aureus
Assay: Antimicrobial activity against Staphylococcus aureus ATCC 29513 at 1000 ug/ml after 24 hrs by cup plate method
Type: functional
Conditions: ATCC 29513, 24 h, read-out: IZ
With `Nc1n[nH]c2c1C(c1c(-c3ccccc3)[nH]c3ccc(Cl)cc13)C=C(c1ccc(Cl)cc1)O2` (stereo unspecified) the zone of inhibition at 1000 µg/mL was 14 mm.

Test system: Escherichia coli
Assay: Antimicrobial activity against Escherichia coli MTCC 723 at 500 ug/ml after 24 hrs by cup plate method
Type: functional
Conditions: MTCC 723, 24 h, read-out: IZ
Molecule `Nc1n[nH]c2c1C(c1c(-c3ccccc3)[nH]c3ccc(Cl)cc13)C=C(c1ccc(Cl)cc1)O2` (stereo unspecified) has a zone of inhibition at 500 µg/mL of 13 mm.

Test system: Escherichia coli
Assay: Antimicrobial activity against Escherichia coli MTCC 723 at 750 ug/ml after 24 hrs by cup plate method
Type: functional
Conditions: MTCC 723, 24 h, read-out: IZ
`Nc1n[nH]c2c1C(c1c(-c3ccccc3)[nH]c3ccc(Cl)cc13)C=C(c1ccc(Cl)cc1)O2` (stereo unspecified) showed a zone of inhibition at 750 µg/mL of 13 mm.

Test system: Escherichia coli
Assay: Antimicrobial activity against Escherichia coli MTCC 723 at 1000 ug/ml after 24 hrs by cup plate method
Type: functional
Conditions: MTCC 723, 24 h, read-out: IZ
Molecule `Nc1n[nH]c2c1C(c1c(-c3ccccc3)[nH]c3ccc(Cl)cc13)C=C(c1ccc(Cl)cc1)O2` (stereo unspecified) has a zone of inhibition at 1000 µg/mL of 14 mm.

Reference: ChEMBL document CHEMBL2346657, “Synthesis of novel 2-amino-4-(5'-substituted 2'-phenyl-1H-indol-3'-yl)-6-aryl-4H-pyran-3-carbonitrile derivatives as antimicrobial and antioxidant agents” (2013)
